Results reported in ChEMBL document CHEMBL5649168, “Discovery of a selective catalytic p300/CBP inhibitor that targets lineage-specific tumours” (Nature, 2017).
Calls of active or inactive are those of the source. No cut-off for these calls is given here.

Legend:
LuCaP-77 CR cell = conditions: Homo sapiens, dose 100.0 mg/kg, time 7.0 day
L-363 = test: Antiproliferative activity against human L-363 cells assessed as inhibition of cell viability incubated for 3 to 5 days by Celltiter-Glo luminescent assay; type: functional, cell-based
[1] = target: Histone acetyltransferase p300 (Homo sapiens, UniProt Q09472)
Description: Binding affinity to p300-BHC (unknown origin) assessed as change in melting temperature in presence of Lys-CoA by sypro orange dye based thermal shift assay

SU-DHL-5 = test: Antiproliferative activity against human SuDHL5 cells assessed as inhibition of cell viability incubated for 3 to 5 days by Celltiter-Glo luminescent assay; type: functional, cell-based
[2] = target: Serine/threonine-protein kinase Nek2 (Homo sapiens, UniProt P51955); test: Inhibition of Nek2 (unknown origin)
Sequence of Serine/threonine-protein kinase Nek2 (P51955 whole entry): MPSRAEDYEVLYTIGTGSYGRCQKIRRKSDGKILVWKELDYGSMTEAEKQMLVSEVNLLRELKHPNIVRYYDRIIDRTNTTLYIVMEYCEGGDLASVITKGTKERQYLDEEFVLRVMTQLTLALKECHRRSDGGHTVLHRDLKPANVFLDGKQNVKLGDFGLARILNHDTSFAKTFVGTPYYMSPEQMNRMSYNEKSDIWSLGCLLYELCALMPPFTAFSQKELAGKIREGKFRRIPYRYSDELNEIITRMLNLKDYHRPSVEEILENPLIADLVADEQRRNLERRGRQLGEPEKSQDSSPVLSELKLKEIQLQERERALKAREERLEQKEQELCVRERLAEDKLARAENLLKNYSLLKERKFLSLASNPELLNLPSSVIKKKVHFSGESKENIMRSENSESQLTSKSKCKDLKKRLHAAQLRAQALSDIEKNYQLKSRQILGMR

COR-L47 = test: Antiproliferative activity against human COR-L47 cells assessed as inhibition of cell viability incubated for 3 to 5 days by Celltiter-Glo luminescent assay; type: functional, cell-based
[3] = target: Protein kinase C theta type (Homo sapiens, UniProt Q04759); test: Inhibition of PKCtheta (unknown origin)
KMS-11 = test: Antiproliferative activity against human KMS-11 cells assessed as inhibition of cell viability incubated for 3 to 5 days by Celltiter-Glo luminescent assay; type: functional, cell-based
NCI-H2081 = test: Antiproliferative activity against human NCI-H2081 cells assessed as inhibition of cell viability incubated for 3 to 5 days by Celltiter-Glo luminescent assay; type: functional, cell-based
[4] = target: Mitogen-activated protein kinase kinase kinase 10 (Homo sapiens, UniProt Q02779); test: Inhibition of MAP3K10 (unknown origin)
Wee1-like protein kinase = Wee1-like protein kinase (Homo sapiens, UniProt P30291); test: Inhibition of Wee1 (unknown origin)
Sequence of Wee1-like protein kinase (P30291 whole entry): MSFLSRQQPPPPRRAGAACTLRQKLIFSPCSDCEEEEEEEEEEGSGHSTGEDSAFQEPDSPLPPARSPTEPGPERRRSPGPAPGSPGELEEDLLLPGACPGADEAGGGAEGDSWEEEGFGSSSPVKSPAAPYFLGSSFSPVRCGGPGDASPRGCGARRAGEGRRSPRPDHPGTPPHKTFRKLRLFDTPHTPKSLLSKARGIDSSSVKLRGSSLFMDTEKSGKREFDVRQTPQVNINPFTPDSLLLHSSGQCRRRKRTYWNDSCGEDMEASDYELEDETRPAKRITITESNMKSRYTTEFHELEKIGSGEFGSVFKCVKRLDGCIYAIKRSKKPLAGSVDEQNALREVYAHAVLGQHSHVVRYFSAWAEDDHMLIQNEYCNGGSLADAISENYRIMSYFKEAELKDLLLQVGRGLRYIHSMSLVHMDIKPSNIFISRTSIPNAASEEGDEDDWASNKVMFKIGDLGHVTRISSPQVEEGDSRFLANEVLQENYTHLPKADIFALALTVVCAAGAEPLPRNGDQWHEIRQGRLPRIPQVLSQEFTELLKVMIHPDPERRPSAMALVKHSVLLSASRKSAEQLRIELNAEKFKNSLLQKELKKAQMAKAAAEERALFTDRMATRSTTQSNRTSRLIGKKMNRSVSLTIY

[5] = target: Serine/threonine-protein kinase PLK3 (Homo sapiens, UniProt Q9H4B4); test: Inhibition of Plk3 (unknown origin)
[6] = target: ALK tyrosine kinase receptor (Homo sapiens, UniProt Q9UM73); test: Inhibition of ALK (unknown origin)
OCI-AML-5 = test: Antiproliferative activity against human OCI-AML5 cells assessed as inhibition of cell viability incubated for 3 to 5 days by Celltiter-Glo luminescent assay; type: functional, cell-based
[7] = target: Cyclin-dependent kinase 11B (Homo sapiens, UniProt P21127); test: Inhibition of CDK11 (unknown origin)
Sequence of Cyclin-dependent kinase 11B (P21127 whole entry): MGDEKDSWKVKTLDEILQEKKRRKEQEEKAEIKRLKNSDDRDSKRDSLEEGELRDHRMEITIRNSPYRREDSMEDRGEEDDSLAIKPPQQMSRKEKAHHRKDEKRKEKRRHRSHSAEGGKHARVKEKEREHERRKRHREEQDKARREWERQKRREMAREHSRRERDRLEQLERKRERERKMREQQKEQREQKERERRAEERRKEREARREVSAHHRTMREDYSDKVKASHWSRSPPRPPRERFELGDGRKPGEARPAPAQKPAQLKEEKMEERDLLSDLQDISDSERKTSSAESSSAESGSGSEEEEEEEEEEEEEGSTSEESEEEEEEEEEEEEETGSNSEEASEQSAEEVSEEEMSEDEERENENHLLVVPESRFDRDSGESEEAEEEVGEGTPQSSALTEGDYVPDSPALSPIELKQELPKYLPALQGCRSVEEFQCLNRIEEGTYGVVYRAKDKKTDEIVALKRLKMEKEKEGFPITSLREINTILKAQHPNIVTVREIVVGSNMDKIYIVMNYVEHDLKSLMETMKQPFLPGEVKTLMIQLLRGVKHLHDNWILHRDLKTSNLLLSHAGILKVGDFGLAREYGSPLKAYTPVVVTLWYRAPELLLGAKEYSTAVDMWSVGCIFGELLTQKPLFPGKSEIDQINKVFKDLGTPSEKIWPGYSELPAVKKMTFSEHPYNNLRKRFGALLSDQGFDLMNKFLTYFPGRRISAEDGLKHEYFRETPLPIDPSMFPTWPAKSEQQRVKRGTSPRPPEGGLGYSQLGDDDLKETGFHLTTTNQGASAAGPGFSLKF

[8] = target: BDNF/NT-3 growth factors receptor (Homo sapiens, UniProt Q16620); test: Inhibition of TrkB (unknown origin)
Sequence of BDNF/NT-3 growth factors receptor (Q16620 whole entry): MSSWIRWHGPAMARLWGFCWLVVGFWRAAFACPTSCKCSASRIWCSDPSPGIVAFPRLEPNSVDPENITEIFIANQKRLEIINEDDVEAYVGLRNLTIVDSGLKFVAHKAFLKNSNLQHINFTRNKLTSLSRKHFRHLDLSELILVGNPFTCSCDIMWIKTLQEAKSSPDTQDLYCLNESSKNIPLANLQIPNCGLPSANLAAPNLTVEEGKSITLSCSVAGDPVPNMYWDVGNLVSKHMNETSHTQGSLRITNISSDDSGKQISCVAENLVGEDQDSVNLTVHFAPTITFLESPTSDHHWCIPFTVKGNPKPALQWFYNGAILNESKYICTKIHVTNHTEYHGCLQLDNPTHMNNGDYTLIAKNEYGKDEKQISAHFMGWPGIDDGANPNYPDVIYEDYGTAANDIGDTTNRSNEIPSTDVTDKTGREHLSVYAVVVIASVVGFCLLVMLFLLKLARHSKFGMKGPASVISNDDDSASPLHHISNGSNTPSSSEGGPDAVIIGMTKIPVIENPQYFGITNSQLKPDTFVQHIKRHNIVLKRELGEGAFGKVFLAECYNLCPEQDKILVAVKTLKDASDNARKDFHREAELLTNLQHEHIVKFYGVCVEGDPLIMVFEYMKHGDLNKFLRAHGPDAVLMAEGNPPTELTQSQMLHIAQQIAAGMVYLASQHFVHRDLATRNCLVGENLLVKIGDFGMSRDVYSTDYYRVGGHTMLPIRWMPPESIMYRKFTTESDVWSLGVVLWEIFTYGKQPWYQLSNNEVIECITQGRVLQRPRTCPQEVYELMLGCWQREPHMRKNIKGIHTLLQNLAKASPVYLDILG

CAL-120 = test: Antiproliferative activity against human CAL-120 cells assessed as inhibition of cell viability incubated for 3 to 5 days by Celltiter-Glo luminescent assay; type: functional, cell-based
Karpas-1106P = test: Antiproliferative activity against human KARPAS-1106P cells assessed as inhibition of cell viability incubated for 3 to 5 days by Celltiter-Glo luminescent assay; type: functional, cell-based
[9] = target: Macrophage colony-stimulating factor 1 receptor (Homo sapiens, UniProt P07333); test: Inhibition of CSF1R (unknown origin)
NCI-H23 = test: Antiproliferative activity against human NCI-H23 cells assessed as inhibition of cell viability incubated for 3 to 5 days by Celltiter-Glo luminescent assay; type: functional, cell-based
HCC2935 = test: Antiproliferative activity against human HCC2935 cells assessed as inhibition of cell viability incubated for 3 to 5 days by Celltiter-Glo luminescent assay; type: functional, cell-based
Kasumi 1 = test: cells; conditions: Homo sapiens
NCI-H1048 = test: Antiproliferative activity against human NCI-H1048 cells assessed as inhibition of cell viability incubated for 3 to 5 days by Celltiter-Glo luminescent assay; type: functional, cell-based
Focal adhesion kinase 1 = Focal adhesion kinase 1 (Homo sapiens, UniProt Q05397); test: Inhibition of FAK (unknown origin)
NCI-H596 = test: Antiproliferative activity against human NCI-H596 cells assessed as inhibition of cell viability incubated for 3 to 5 days by Celltiter-Glo luminescent assay; type: functional, cell-based
A-375 = test: Antiproliferative activity against human A-375 cells assessed as inhibition of cell viability incubated for 3 to 5 days by Celltiter-Glo luminescent assay; type: functional, cell-based
[10] = target: Ca2+ channel (L, dihydropyridine site) (Homo sapiens, UniProt O60840+Q01668+Q13698+Q13936); test: Inhibition of Ca2+ channel (L, dihydropyridine site) (unknown origin) at 10 uM by radioligand binding assay relative to control; type: protein assay
[11] = Inhibition of CDK9/Cyclin K (unknown origin); set-up: species or system Homo sapiens
[12] = target: High affinity nerve growth factor receptor (Homo sapiens, UniProt P04629); test: Inhibition of TrkA (unknown origin)
Sequence of High affinity nerve growth factor receptor (P04629 whole entry): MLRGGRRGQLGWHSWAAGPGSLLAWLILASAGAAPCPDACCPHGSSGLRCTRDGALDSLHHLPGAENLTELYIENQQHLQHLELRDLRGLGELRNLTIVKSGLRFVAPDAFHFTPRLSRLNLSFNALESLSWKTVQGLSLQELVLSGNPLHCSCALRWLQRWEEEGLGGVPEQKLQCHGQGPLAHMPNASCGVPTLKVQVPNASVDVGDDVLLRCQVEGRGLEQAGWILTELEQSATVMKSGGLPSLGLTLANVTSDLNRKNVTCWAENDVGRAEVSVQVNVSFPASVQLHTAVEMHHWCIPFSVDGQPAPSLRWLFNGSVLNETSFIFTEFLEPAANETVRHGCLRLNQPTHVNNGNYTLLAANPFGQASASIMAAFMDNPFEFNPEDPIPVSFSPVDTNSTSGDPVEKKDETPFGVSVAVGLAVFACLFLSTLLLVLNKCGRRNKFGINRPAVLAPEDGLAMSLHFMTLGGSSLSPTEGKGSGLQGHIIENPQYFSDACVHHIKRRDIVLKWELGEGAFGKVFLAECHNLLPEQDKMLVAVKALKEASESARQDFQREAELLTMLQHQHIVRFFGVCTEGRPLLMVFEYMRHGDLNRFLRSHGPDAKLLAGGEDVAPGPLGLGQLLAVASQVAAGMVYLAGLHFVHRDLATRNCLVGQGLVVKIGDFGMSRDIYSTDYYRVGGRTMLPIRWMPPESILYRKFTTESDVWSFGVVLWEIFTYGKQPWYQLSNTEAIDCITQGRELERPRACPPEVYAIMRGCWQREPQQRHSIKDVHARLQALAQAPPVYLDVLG

NCI-H2444 = test: Antiproliferative activity against human NCI-H2444 cells assessed as inhibition of cell viability incubated for 3 to 5 days by Celltiter-Glo luminescent assay; type: functional, cell-based
[13] = target: Tyrosine-protein kinase BTK (Homo sapiens, UniProt Q06187); test: Inhibition of BTK (unknown origin)
[14] = target: Fibroblast growth factor receptor 1 (Homo sapiens, UniProt P11362); test: Inhibition of FGFR1 (unknown origin)
Sequence of Fibroblast growth factor receptor 1 (P11362 whole entry): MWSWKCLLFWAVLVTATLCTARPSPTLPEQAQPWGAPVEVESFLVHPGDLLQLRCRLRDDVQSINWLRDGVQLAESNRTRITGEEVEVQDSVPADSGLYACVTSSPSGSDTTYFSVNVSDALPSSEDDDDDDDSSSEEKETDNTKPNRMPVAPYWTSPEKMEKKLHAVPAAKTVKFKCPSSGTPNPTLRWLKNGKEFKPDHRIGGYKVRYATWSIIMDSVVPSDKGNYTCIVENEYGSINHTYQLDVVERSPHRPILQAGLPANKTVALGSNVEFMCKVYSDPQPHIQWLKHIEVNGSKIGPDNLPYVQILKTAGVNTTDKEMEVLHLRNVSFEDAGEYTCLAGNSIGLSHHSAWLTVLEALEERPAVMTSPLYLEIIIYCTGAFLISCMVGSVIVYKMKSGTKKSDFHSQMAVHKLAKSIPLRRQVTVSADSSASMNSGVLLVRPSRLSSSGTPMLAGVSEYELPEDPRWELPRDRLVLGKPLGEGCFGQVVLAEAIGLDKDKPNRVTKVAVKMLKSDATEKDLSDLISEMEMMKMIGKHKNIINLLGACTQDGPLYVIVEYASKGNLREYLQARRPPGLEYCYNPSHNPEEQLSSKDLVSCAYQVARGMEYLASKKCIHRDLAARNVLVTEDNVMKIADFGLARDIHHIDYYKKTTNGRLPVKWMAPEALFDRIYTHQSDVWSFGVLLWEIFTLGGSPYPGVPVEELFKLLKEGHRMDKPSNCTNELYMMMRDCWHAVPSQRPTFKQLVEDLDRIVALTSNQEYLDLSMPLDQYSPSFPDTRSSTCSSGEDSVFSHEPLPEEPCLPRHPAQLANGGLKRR

[15] = target: Glycogen synthase kinase-3 beta (Homo sapiens, UniProt P49841); test: Inhibition of Gsk3beta (unknown origin)
BJAB = test: Antiproliferative activity against human BJAB cells assessed as inhibition of cell viability incubated for 3 to 5 days by Celltiter-Glo luminescent assay; type: functional, cell-based
MOLT-4 = test: Antiproliferative activity against human MOLT-4 cells assessed as inhibition of cell viability incubated for 3 to 5 days by Celltiter-Glo luminescent assay; type: functional, cell-based
NCI-H441 = test: Antiproliferative activity against human NCI-H441 cells assessed as inhibition of cell viability incubated for 3 to 5 days by Celltiter-Glo luminescent assay; type: functional, cell-based
[16] = target: Dual specificity mitogen-activated protein kinase kinase 2 (Homo sapiens, UniProt P36507); test: Inhibition of MEK2 (unknown origin)
Sequence of Dual specificity mitogen-activated protein kinase kinase 2 (P36507 whole entry): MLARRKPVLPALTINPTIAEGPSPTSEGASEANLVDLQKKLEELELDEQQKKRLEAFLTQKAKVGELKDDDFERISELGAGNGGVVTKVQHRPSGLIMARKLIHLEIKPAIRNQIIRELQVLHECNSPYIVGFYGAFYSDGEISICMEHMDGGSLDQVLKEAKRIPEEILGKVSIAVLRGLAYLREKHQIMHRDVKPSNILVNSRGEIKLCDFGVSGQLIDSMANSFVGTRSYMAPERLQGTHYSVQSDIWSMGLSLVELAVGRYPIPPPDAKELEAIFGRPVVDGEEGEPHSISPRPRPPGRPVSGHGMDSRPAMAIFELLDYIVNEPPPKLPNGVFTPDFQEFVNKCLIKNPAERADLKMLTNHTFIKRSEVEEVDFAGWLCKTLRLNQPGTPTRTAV

[17] = target: Hepatocyte growth factor receptor (Homo sapiens, UniProt P08581); test: Inhibition of c-MET (unknown origin)
COLO-679 = test: Antiproliferative activity against human COLO-679 cells assessed as inhibition of cell viability incubated for 3 to 5 days by Celltiter-Glo luminescent assay; type: functional, cell-based
SK-MEL-24 = test: Antiproliferative activity against human SK-MEL-24 cells assessed as inhibition of cell viability incubated for 3 to 5 days by Celltiter-Glo luminescent assay; type: functional, cell-based
LNCaP-Clone-FGC = test: Antiproliferative activity against human LNCaP-Clone-FGC cells assessed as inhibition of cell viability incubated for 3 to 5 days by Celltiter-Glo luminescent assay; type: functional, cell-based

In the case of CNC(=O)Nc1ccc2c(c1)CC[C@@]21OC(=O)N(CC(=O)N(Cc2ccc(F)cc2)[C@@H](C)C(F)(F)F)C1=O [A-485], the inhibition (LuCaP-77 CR cell) is reported as “Active”, the EC50 (L-363) is reported as 0.51 µM and the ΔTm [1] is reported as 5.8 °C. For the same molecule, the EC50 (SU-DHL-5) was 0.76 µM, the IC50 [2] was over 10 µM and the EC50 (COR-L47) was over 10 µM. For the same molecule, the IC50 [3] was over 10 µM, the EC50 (KMS-11) was 0.24 µM and the EC50 (NCI-H2081) was over 10 µM. For the same molecule, the IC50 [4] was over 10 µM, the IC50 (Wee1-like protein kinase) was over 10 µM and the IC50 [5] was 2.69 µM. The IC50 [6] was over 10 µM, the EC50 (OCI-AML-5) was 4.86 µM and the IC50 [7] was over 10 µM. The IC50 [8] was over 10 µM, the EC50 (CAL-120) was over 10 µM and the EC50 (Karpas-1106P) was 0.41 µM. For the same molecule, the IC50 [9] was over 10 µM, the EC50 (NCI-H23) was 1.79 µM and the EC50 (HCC2935) was over 10 µM. For the same molecule, the EC50 (Kasumi 1) was 0.29 µM, the EC50 (NCI-H1048) was over 10 µM and the IC50 (Focal adhesion kinase 1) was over 10 µM. It also gave an EC50 (NCI-H596) of over 10 µM, an EC50 (A-375) of over 10 µM and an inhibition at 10 µM [10] of -9%. The IC50 [11] was over 10 µM, the IC50 [12] was over 10 µM and the EC50 (NCI-H2444) was 5.92 µM. The IC50 [13] was over 10 µM, the IC50 [14] was over 10 µM and the IC50 [15] was over 10 µM. It also gave an EC50 (BJAB) of 0.28 µM, an EC50 (MOLT-4) of over 10 µM and an EC50 (NCI-H441) of over 10 µM. It also gave an IC50 [16] of over 10 µM, an IC50 [17] of over 10 µM and an EC50 (COLO-679) of 2.26 µM. The EC50 (SK-MEL-24) was over 10 µM and the EC50 (LNCaP-Clone-FGC) was 0.26 µM.
